# Assays:
# Type in all cases: functional, organism-based
# Cercospora beticola [1] = test: Antifungal activity against Cercospora beticola isolate 11-1028-2 expressing cytb with alanine at codon 143 assessed as reduction in spore germination
# Cercospora beticola [2] = test: Antifungal activity against Cercospora beticola isolate 11-1027-2 expressing cytb with alanine at codon 143 assessed as reduction in spore germination
# Cercospora beticola [3] = test: Antifungal activity against Cercospora beticola isolate 11-1008-1 expressing cytb with alanine at codon 143 assessed as reduction in spore germination
# Cercospora beticola [4] = test: Antifungal activity against Cercospora beticola isolate 11-1015-2 expressing cytb with alanine at codon 143 assessed as reduction in spore germination
# Cercospora beticola [5] = test: Antifungal activity against Cercospora beticola isolate 99-521-29-M expressing cytb with glycine at codon 143 assessed as reduction in spore germination
# Cercospora beticola [6] = test: Antifungal activity against Cercospora beticola isolate 11-1035-2 expressing cytb with alanine at codon 143 assessed as reduction in spore germination
# Cercospora beticola [7] = test: Antifungal activity against Cercospora beticola isolate 11-1039-1 expressing cytb with alanine at codon 143 assessed as reduction in spore germination
# Cercospora beticola [8] = test: Antifungal activity against Cercospora beticola isolate 11-1037-1 expressing cytb with alanine at codon 143 assessed as reduction in spore germination
# Cercospora beticola [9] = test: Antifungal activity against Cercospora beticola isolate 11-1022-2 expressing cytb with alanine at codon 143 assessed as reduction in spore germination
# Cercospora beticola [10] = test: Antifungal activity against Cercospora beticola isolate 11-1044-1 expressing cytb with alanine at codon 143 assessed as reduction in spore germination
# Cercospora beticola [11] = test: Antifungal activity against Cercospora beticola isolate 98-13-M expressing cytb with glycine at codon 143 assessed as reduction in spore germination
# Cercospora beticola [12] = test: Antifungal activity against Cercospora beticola isolate 98-150-M expressing cytb with glycine at codon 143 assessed as reduction in spore germination
# Cercospora beticola [13] = test: Antifungal activity against Cercospora beticola isolate 11-1038-1 expressing cytb with alanine at codon 143 assessed as reduction in spore germination
# Cercospora beticola [14] = test: Antifungal activity against Cercospora beticola isolate 11-1042-2 expressing cytb with alanine at codon 143 assessed as reduction in spore germination
# Cercospora beticola [15] = test: Antifungal activity against Cercospora beticola isolate 99-233-3-M expressing cytb with glycine at codon 143 assessed as reduction in spore germination
# Cercospora beticola [16] = test: Antifungal activity against Cercospora beticola isolate 11-1005-2 expressing cytb with alanine at codon 143 assessed as reduction in spore germination
# Cercospora beticola [17] = test: Antifungal activity against Cercospora beticola isolate 11-1045-2 expressing cytb with alanine at codon 143 assessed as reduction in spore germination
# Cercospora beticola [18] = test: Antifungal activity against Cercospora beticola isolate 11-1043-2 expressing cytb with alanine at codon 143 assessed as reduction in spore germination
# Cercospora beticola [19] = test: Antifungal activity against Cercospora beticola isolate 98-101-5-M expressing cytb with glycine at codon 143 assessed as reduction in spore germination
# Cercospora beticola [20] = test: Antifungal activity against Cercospora beticola isolate 11-1026-1 expressing cytb with alanine at codon 143 assessed as reduction in spore germination
# Cercospora beticola [21] = test: Antifungal activity against Cercospora beticola isolate 98-10-M expressing cytb with glycine at codon 143 assessed as reduction in spore germination
# Cercospora beticola [22] = test: Antifungal activity against Cercospora beticola isolate 11-1028-1 expressing cytb with alanine at codon 143 assessed as reduction in spore germination
# Cercospora beticola [23] = test: Antifungal activity against Cercospora beticola isolate 11-1040-1 expressing cytb with alanine at codon 143 assessed as reduction in spore germination
# Cercospora beticola [24] = test: Antifungal activity against Cercospora beticola isolate 11-1003-2 expressing cytb with alanine at codon 143 assessed as reduction in spore germination
# Cercospora beticola [25] = test: Antifungal activity against Cercospora beticola isolate 11-1006-2 expressing cytb with alanine at codon 143 assessed as reduction in spore germination
# Cercospora beticola [26] = test: Antifungal activity against Cercospora beticola isolate 11-1040-2 expressing cytb with alanine at codon 143 assessed as reduction in spore germination
# Cercospora beticola [27] = test: Antifungal activity against Cercospora beticola isolate 11-1027-1 expressing cytb with alanine at codon 143 assessed as reduction in spore germination
# Cercospora beticola [28] = test: Antifungal activity against Cercospora beticola isolate 11-1042-1 expressing cytb with alanine at codon 143 assessed as reduction in spore germination
# Cercospora beticola [29] = test: Antifungal activity against Cercospora beticola isolate 11-1004-1 expressing cytb with alanine at codon 143 assessed as reduction in spore germination
# Cercospora beticola [30] = test: Antifungal activity against Cercospora beticola isolate 11-1037-2 expressing cytb with alanine at codon 143 assessed as reduction in spore germination
# Cercospora beticola [31] = test: Antifungal activity against Cercospora beticola isolate 11-1046-1 expressing cytb with alanine at codon 143 assessed as reduction in spore germination
# Cercospora beticola [32] = test: Antifungal activity against Cercospora beticola isolate 11-1005-1 expressing cytb with alanine at codon 143 assessed as reduction in spore germination
# Cercospora beticola [33] = test: Antifungal activity against Cercospora beticola isolate 11-1009-1 expressing cytb with alanine at codon 143 assessed as reduction in spore germination
# Cercospora beticola [34] = test: Antifungal activity against Cercospora beticola isolate 11-1026-2 expressing cytb with alanine at codon 143 assessed as reduction in spore germination
# Cercospora beticola [35] = test: Antifungal activity against Cercospora beticola isolate 98-12-M expressing cytb with glycine at codon 143 assessed as reduction in spore germination
# Cercospora beticola [36] = test: Antifungal activity against Cercospora beticola isolate 11-1036-2 expressing cytb with alanine at codon 143 assessed as reduction in spore germination
# Cercospora beticola [37] = test: Antifungal activity against Cercospora beticola isolate 11-1036-1 expressing cytb with alanine at codon 143 assessed as reduction in spore germination
# Cercospora beticola [38] = test: Antifungal activity against Cercospora beticola isolate 98-9-M expressing cytb with glycine at codon 143 assessed as reduction in spore germination
# Cercospora beticola [39] = test: Antifungal activity against Cercospora beticola isolate 11-1016-1 expressing cytb with alanine at codon 143 assessed as reduction in spore germination
# Cercospora beticola [40] = test: Antifungal activity against Cercospora beticola isolate 11-1041-1 expressing cytb with alanine at codon 143 assessed as reduction in spore germination
# Cercospora beticola [41] = test: Antifungal activity against Cercospora beticola isolate 11-1007-1 expressing cytb with alanine at codon 143 assessed as reduction in spore germination
# Cercospora beticola [42] = test: Antifungal activity against Cercospora beticola isolate 11-1044-2 expressing cytb with alanine at codon 143 assessed as reduction in spore germination
# Cercospora beticola [43] = test: Antifungal activity against Cercospora beticola isolate 11-1015-1 expressing cytb with alanine at codon 143 assessed as reduction in spore germination
# Cercospora beticola [44] = test: Antifungal activity against Cercospora beticola isolate 11-1038-2 expressing cytb with alanine at codon 143 assessed as reduction in spore germination
# Cercospora beticola [45] = test: Antifungal activity against Cercospora beticola isolate 11-1046-2 expressing cytb with alanine at codon 143 assessed as reduction in spore germination
# Cercospora beticola [46] = test: Antifungal activity against Cercospora beticola isolate 11-1007-2 expressing cytb with alanine at codon 143 assessed as reduction in spore germination
# Cercospora beticola [47] = test: Antifungal activity against Cercospora beticola isolate 11-1014-1 expressing cytb with alanine at codon 143 assessed as reduction in spore germination
# Cercospora beticola [48] = test: Antifungal activity against Cercospora beticola isolate 11-1022-1 expressing cytb with alanine at codon 143 assessed as reduction in spore germination
# Cercospora beticola [49] = test: Antifungal activity against Cercospora beticola isolate 98-19-M expressing cytb with glycine at codon 143 assessed as reduction in spore germination
compound,measurement,setting,value
CO/N=C(\C(=O)OC)c1ccccc1CO/N=C(\C)c1cccc(C(F)(F)F)c1,EC50,Cercospora beticola [1],4.96 µg/mL
same,EC50,Cercospora beticola [2],6.06 µg/mL
same,EC50,Cercospora beticola [3],7.49 µg/mL
same,EC50,Cercospora beticola [4],7.79 µg/mL
same,EC50,Cercospora beticola [5],0.005 µg/mL
same,EC50,Cercospora beticola [6],6.36 µg/mL
same,EC50,Cercospora beticola [7],6.79 µg/mL
same,EC50,Cercospora beticola [8],6.78 µg/mL
same,EC50,Cercospora beticola [9],4.98 µg/mL
same,EC50,Cercospora beticola [10],13.8 µg/mL
same,EC50,Cercospora beticola [11],0.006 µg/mL
same,EC50,Cercospora beticola [12],0.004 µg/mL
same,EC50,Cercospora beticola [13],19.9 µg/mL
same,EC50,Cercospora beticola [14],2.36 µg/mL
same,EC50,Cercospora beticola [15],0.004 µg/mL
same,EC50,Cercospora beticola [16],3.25 µg/mL
same,EC50,Cercospora beticola [17],7.02 µg/mL
same,EC50,Cercospora beticola [18],3.27 µg/mL
same,EC50,Cercospora beticola [19],0.006 µg/mL
same,EC50,Cercospora beticola [20],25.9 µg/mL
same,EC50,Cercospora beticola [21],0.001 µg/mL
same,EC50,Cercospora beticola [22],7.62 µg/mL
same,EC50,Cercospora beticola [23],7.64 µg/mL
same,EC50,Cercospora beticola [24],1 µg/mL
same,EC50,Cercospora beticola [25],8.46 µg/mL
same,EC50,Cercospora beticola [26],13.7 µg/mL
same,EC50,Cercospora beticola [27],29.7 µg/mL
same,EC50,Cercospora beticola [28],8.83 µg/mL
same,EC50,Cercospora beticola [29],6.66 µg/mL
same,EC50,Cercospora beticola [30],4.24 µg/mL
same,EC50,Cercospora beticola [31],5.48 µg/mL
same,EC50,Cercospora beticola [32],9.54 µg/mL
same,EC50,Cercospora beticola [33],39.4 µg/mL
same,EC50,Cercospora beticola [34],8.55 µg/mL
same,EC50,Cercospora beticola [35],0.005 µg/mL
same,EC50,Cercospora beticola [36],8.15 µg/mL
same,EC50,Cercospora beticola [37],3.62 µg/mL
same,EC50,Cercospora beticola [38],0.004 µg/mL
same,EC50,Cercospora beticola [39],5.89 µg/mL
same,EC50,Cercospora beticola [40],6.09 µg/mL
same,EC50,Cercospora beticola [41],7.65 µg/mL
same,EC50,Cercospora beticola [42],8.56 µg/mL
same,EC50,Cercospora beticola [43],7.3 µg/mL
same,EC50,Cercospora beticola [44],35.5 µg/mL
same,EC50,Cercospora beticola [45],8.37 µg/mL
same,EC50,Cercospora beticola [46],6.84 µg/mL
same,EC50,Cercospora beticola [47],4.54 µg/mL
same,EC50,Cercospora beticola [48],6.86 µg/mL
same,EC50,Cercospora beticola [49],0.005 µg/mL
COC(=O)N(OC)c1ccccc1COc1ccn(-c2ccc(Cl)cc2)n1 [PYRACLOSTROBIN],EC50,Cercospora beticola [1],4.53 µg/mL
same,EC50,Cercospora beticola [2],4.12 µg/mL
same,EC50,Cercospora beticola [3],4.82 µg/mL
same,EC50,Cercospora beticola [4],2.1 µg/mL
same,EC50,Cercospora beticola [5],0.001 µg/mL
same,EC50,Cercospora beticola [6],31 µg/mL
same,EC50,Cercospora beticola [7],20.4 µg/mL
same,EC50,Cercospora beticola [8],40.9 µg/mL
same,EC50,Cercospora beticola [9],6.37 µg/mL
same,EC50,Cercospora beticola [10],14.3 µg/mL
same,EC50,Cercospora beticola [11],0.006 µg/mL
same,EC50,Cercospora beticola [12],0.001 µg/mL
same,EC50,Cercospora beticola [13],39.9 µg/mL
same,EC50,Cercospora beticola [14],32.6 µg/mL
same,EC50,Cercospora beticola [15],0.001 µg/mL
same,EC50,Cercospora beticola [16],7.86 µg/mL
same,EC50,Cercospora beticola [17],16.2 µg/mL
same,EC50,Cercospora beticola [18],16.9 µg/mL
same,EC50,Cercospora beticola [19],0.001 µg/mL
same,EC50,Cercospora beticola [20],7.15 µg/mL
same,EC50,Cercospora beticola [21],0.001 µg/mL
same,EC50,Cercospora beticola [22],8.79 µg/mL
same,EC50,Cercospora beticola [23],12 µg/mL
same,EC50,Cercospora beticola [24],0.915 µg/mL
same,EC50,Cercospora beticola [25],9.54 µg/mL
same,EC50,Cercospora beticola [26],22.3 µg/mL
same,EC50,Cercospora beticola [27],25.9 µg/mL
same,EC50,Cercospora beticola [28],31.4 µg/mL
same,EC50,Cercospora beticola [29],5.34 µg/mL
same,EC50,Cercospora beticola [30],5.92 µg/mL
same,EC50,Cercospora beticola [31],41.7 µg/mL
same,EC50,Cercospora beticola [32],46 µg/mL
same,EC50,Cercospora beticola [33],47.4 µg/mL
same,EC50,Cercospora beticola [34],7.56 µg/mL
same,EC50,Cercospora beticola [35],0.001 µg/mL
same,EC50,Cercospora beticola [36],5.55 µg/mL
same,EC50,Cercospora beticola [37],29.7 µg/mL
same,EC50,Cercospora beticola [38],0.001 µg/mL
same,EC50,Cercospora beticola [39],51.7 µg/mL
same,EC50,Cercospora beticola [40],4.55 µg/mL
same,EC50,Cercospora beticola [41],4.78 µg/mL
same,EC50,Cercospora beticola [42],5.23 µg/mL
same,EC50,Cercospora beticola [43],72.2 µg/mL
same,EC50,Cercospora beticola [44],3.24 µg/mL
same,EC50,Cercospora beticola [45],26.2 µg/mL
same,EC50,Cercospora beticola [46],16.1 µg/mL
same,EC50,Cercospora beticola [47],5.03 µg/mL
same,EC50,Cercospora beticola [48],29.7 µg/mL
same,EC50,Cercospora beticola [49],0.003 µg/mL
